Measured values: ChEMBL document CHEMBL4229329, “Design of Small-Molecule Active-Site Inhibitors of the S1A Family Proteases as Procoagulant and Anticoagulant Drugs” (J Med Chem, 2018)
Each block holds one compound with its values, some of them ahead of it.

Columns and labels:
[1] = Apparent permeability across apical to basolateral side in human Caco2 cells at 750 uM measured over 90 mins by HPLC-MS analysis; type: ADME, cell-based; settings: Caco-2
[2] = Oral bioavailability in human at 10 mg; type: ADME, organism-based; settings: in vivo
[3] = Efflux ratio of apparent permeability across basolateral to apical over apical to basolateral side in human Caco2 cells; type: ADME, cell-based; settings: Caco-2
Homo sapiens [4] = species: Homo sapiens; assay: Selectivity ratio of Ki for recombinant human factor 9a to Ki for human factor 10a
[5] = Apparent permeability across human Caco2 cells measured every 30 mins for 2 hrs; type: ADME, cell-based; settings: Caco-2
[6] = Oral bioavailability in human at 57 to 200 mg; type: ADME, organism-based; settings: in vivo
Homo sapiens [7] = species: Homo sapiens; assay: Selectivity ratio of Ki for human PKK to Ki for human factor 11a
[8] = Apparent permeability across apical to basolateral side in human Caco2 cells at 10 umol/l measured at 45 to 120 mins by LC-MS/MS analysis; type: ADME, cell-based; settings: Caco-2
Coagulation factor X = Coagulation factor X (Homo sapiens, UniProt P00742); assay: Competitive inhibition of human factor 10a using pefachrome F10a as substrate by UV-visible spectrophotometer
Coagulation factor XI = Coagulation factor XI (Homo sapiens, UniProt P03951); assay: Competitive inhibition of human factor 11a using pefachrome PCa as substrate by UV-visible spectrophotometer
Plasminogen = Plasminogen (Homo sapiens, UniProt P00747); assay: Competitive inhibition of human plasmin using chromozyme PL as substrate by UV-visible spectrophotometer
Plasma kallikrein = Plasma kallikrein (Homo sapiens, UniProt P03952); assay: Competitive inhibition of human plasma kallikrein using S2302 as substrate by UV-visible spectrophotometer

- Papp A→B at 1.5 h, 750 µM [1]: 24 nm/s
SMILES: CCOC(=O)CN[C@@H](C(=O)N1CC[C@H]1C(=O)NCc1ccc(/C(N)=N\O)cc1)C1CCCCC1 [XIMELAGATRAN]

- bioavailability [2]: > 80%
SMILES: O=C(NC[C@H]1CN(c2ccc(N3CCOCC3=O)cc2)C(=O)O1)c1ccc(Cl)s1 [RIVAROXABAN]

- efflux ratio [3]: 13.8
SMILES: CCCCCCOC(=O)NC(=N)c1ccc(NCc2nc3cc(C(=O)N(CCC(=O)OCC)c4ccccn4)ccc3n2C)cc1 [DABIGATRAN ETEXILATE]

- Ratio Ki (Homo sapiens [4]): 130
SMILES: N=C(N)c1cccc(-n2nc(C(F)(F)F)cc2C(=O)Nc2ccc(-n3cnc4ccccc43)cc2F)c1

- Papp at 2 h [5]: 0.3 nm/s
- bioavailability [6]: 3 to 7%
SMILES: N=C(N)c1ccc(CNC(=O)[C@@H]2CCN2C(=O)[C@H](NCC(=O)O)C2CCCCC2)cc1

- Ratio Ki (Homo sapiens [7]): 10
- Papp A→B at 10 µM [8]: 2.8 nm/s
SMILES: O=C(N[C@@H](Cc1ccccc1)C(=O)NCc1cc(=O)[nH]c2ccc(Cl)cc12)c1ccc2[nH]c(=O)cc(O)c2c1

- Ki (Coagulation factor X): 45 nM
- Ki (Coagulation factor XI): 18 nM
- Ki (Plasminogen): 2.2 nM
- Ki (Plasma kallikrein): 0.02 nM
SMILES: N=C(N)c1ccc(CC(=O)[C@H](Cc2cccc(CN)c2)NC(=O)[C@@H](CCCc2ccccc2)NS(=O)(=O)Cc2cccc(C(=O)O)c2)cc1
